Source: ChEMBL document CHEMBL2203000, “Discovery of AC710, a Globally Selective Inhibitor of Platelet-Derived Growth Factor Receptor-Family Kinases” (ACS Med Chem Lett, 2012)

Columns and labels:
NFS-60 = test: Antitumor activity against mouse M-NFS-60 cells xenografted in CD-1 nude mouse assessed as inhibition of tumor growth measured after 4 days of tumor implantation; assay type: functional, cell-based
[1] = Aqueous solubility of the compound in water; assay type: physicochemical
[2] = AUC in po dosed CD-1 mouse by LC-MS/MS analysis; assay type: ADME, organism-based; settings: plasma
Cytochrome P450 3A4 = Cytochrome P450 3A4 (Homo sapiens, UniProt P08684); test: Inhibition of CYP3A4; assay type: ADME
Cytochrome P450 3A4, sequence (P08684 whole entry): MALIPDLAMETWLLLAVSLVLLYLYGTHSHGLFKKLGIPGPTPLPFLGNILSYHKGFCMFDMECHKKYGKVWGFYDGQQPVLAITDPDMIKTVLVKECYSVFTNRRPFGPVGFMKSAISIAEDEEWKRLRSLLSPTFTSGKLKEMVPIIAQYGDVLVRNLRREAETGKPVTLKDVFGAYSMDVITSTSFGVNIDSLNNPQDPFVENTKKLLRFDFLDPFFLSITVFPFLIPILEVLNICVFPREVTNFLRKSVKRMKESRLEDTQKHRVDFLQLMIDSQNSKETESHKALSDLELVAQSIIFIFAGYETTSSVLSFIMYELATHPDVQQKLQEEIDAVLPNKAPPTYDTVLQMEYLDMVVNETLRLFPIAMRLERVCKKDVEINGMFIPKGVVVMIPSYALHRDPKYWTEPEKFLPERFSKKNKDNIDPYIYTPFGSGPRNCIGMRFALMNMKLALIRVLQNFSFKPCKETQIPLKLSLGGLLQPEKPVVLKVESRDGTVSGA

[3] = Antitumor activity against mouse M-NFS-60 cells xenografted in CD-1 nude mouse assessed as inhibition of tumor growth at 30 mg/kg, po measured after 4 of tumor implantation; assay type: functional; settings: read-out: TGI
Rattus norvegicus [4] = test: Toxicity in rat at 200 mg/kg administered for 7 days; assay type: organism-based; design: dose 200 mg/kg; settings: in vivo, 168 h
Rattus norvegicus [5] = test: Toxicity in rat assessed as diarrhea at 800 mg/kg administered for 7 days; assay type: organism-based; design: dose 800 mg/kg; settings: in vivo, 168 h
[6] = Antitumor activity against mouse M-NFS-60 cells xenografted in CD-1 nude mouse assessed as inhibition of tumor growth at 100 mg/kg, po measured after 4 of tumor implantation; assay type: functional; settings: read-out: TGI
Cytochrome P450 2C9 = Cytochrome P450 2C9 (Homo sapiens, UniProt P11712); test: Inhibition of CYP2C9; assay type: ADME
Cytochrome P450 2C9, sequence (P11712 whole entry): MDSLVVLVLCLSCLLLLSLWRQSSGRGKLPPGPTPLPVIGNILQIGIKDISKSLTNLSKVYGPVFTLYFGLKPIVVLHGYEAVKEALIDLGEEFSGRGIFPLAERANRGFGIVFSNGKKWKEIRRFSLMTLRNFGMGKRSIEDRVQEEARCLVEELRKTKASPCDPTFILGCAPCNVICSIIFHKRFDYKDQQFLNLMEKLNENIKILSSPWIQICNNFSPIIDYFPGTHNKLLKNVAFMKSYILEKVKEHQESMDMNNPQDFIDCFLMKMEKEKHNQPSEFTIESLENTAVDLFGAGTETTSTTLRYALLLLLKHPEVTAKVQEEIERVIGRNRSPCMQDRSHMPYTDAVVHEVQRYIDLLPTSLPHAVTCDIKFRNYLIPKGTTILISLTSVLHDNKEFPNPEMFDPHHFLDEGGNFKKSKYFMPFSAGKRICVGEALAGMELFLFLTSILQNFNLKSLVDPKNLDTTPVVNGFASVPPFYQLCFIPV

[7] = Antitumor activity against mouse M-NFS-60 cells xenografted in CD-1 nude mouse assessed as inhibition of tumor growth at 10 mg/kg, po measured after 4 of tumor implantation; assay type: functional; settings: read-out: TGI
[8] = Oral bioavailability in Sprague-Dawley rat plasma at 10 mg/kg by LC-MS/MS analysis; assay type: ADME, organism-based; settings: Sprague-Dawley, plasma
[9] = Clearance in Sprague-Dawley rat plasma at 1 mg/kg, iv and 10 mg/kg, po by LC-MS/MS analysis; assay type: ADME, organism-based
[10] = target: T1, Mast/stem cell growth factor receptor Kit (Homo sapiens, UniProt P10721); test: Inhibition of KIT phosphorylation in human H526 cells; assay type: cell-based
T1 sequence (P10721 whole entry): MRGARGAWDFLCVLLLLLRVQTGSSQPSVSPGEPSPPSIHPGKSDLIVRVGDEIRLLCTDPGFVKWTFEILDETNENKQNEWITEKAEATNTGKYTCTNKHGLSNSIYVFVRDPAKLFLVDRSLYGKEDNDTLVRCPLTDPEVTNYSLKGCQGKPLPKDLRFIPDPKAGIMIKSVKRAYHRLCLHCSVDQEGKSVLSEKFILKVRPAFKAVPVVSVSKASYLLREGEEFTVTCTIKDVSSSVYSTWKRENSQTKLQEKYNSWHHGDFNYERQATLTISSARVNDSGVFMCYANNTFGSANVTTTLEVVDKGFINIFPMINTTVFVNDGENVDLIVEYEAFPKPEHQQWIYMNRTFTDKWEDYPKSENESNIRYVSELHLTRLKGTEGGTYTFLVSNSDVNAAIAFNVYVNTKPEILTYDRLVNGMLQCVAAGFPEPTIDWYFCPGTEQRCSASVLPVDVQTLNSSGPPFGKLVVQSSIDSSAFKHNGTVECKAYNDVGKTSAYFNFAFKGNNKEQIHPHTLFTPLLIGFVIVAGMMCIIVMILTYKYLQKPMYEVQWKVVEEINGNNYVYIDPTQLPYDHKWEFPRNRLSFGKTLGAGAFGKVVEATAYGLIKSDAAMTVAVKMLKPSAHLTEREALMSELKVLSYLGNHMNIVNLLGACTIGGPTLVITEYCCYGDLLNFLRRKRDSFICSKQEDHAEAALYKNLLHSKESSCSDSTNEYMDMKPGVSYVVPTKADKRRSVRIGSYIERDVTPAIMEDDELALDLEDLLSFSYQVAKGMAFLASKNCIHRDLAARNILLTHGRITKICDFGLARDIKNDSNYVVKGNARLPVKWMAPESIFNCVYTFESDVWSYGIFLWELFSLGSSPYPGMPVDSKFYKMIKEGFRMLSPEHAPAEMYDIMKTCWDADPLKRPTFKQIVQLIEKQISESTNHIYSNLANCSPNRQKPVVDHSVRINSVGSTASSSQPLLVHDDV

[11] = target: T1, Mast/stem cell growth factor receptor Kit; test: Binding affinity to KIT expressed in HEK-293 cells; assay type: cell-based, HEK293
Cytochrome P450 2C19 = Cytochrome P450 2C19 (Homo sapiens, UniProt P33261); test: Inhibition of CYP2C19; assay type: ADME
Cytochrome P450 2C19, sequence (P33261 whole entry): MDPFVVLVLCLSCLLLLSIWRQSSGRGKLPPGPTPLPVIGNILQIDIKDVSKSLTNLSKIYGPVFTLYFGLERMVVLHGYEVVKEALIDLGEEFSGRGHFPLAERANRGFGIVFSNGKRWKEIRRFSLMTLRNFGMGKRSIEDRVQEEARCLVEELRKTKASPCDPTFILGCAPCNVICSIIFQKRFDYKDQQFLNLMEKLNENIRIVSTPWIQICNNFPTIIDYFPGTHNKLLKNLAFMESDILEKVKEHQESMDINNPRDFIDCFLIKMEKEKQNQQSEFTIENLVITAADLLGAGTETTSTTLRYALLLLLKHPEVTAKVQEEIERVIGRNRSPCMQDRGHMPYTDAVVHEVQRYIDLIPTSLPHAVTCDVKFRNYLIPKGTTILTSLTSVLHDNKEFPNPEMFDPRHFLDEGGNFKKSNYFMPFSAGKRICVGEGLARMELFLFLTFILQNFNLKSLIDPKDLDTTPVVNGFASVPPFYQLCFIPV

Cytochrome P450 2D6 = Cytochrome P450 2D6 (Homo sapiens, UniProt P10635); test: Inhibition of CYP2D6; assay type: ADME
Cytochrome P450 2D6, sequence (P10635 whole entry): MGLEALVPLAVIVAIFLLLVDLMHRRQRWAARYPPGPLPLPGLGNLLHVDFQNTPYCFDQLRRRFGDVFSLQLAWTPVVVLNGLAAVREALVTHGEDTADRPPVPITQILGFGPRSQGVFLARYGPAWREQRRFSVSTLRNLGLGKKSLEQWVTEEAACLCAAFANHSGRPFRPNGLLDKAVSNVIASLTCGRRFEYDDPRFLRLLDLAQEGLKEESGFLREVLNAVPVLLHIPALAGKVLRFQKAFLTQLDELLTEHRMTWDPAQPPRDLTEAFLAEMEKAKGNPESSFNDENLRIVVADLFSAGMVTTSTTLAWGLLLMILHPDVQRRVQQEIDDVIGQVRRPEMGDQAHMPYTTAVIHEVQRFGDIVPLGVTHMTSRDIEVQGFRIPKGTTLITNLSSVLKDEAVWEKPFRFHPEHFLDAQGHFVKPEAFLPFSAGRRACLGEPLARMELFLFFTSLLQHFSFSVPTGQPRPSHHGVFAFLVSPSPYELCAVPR

[12] = AUC in Sprague-Dawley rat plasma at 10 mg/kg, po by LC-MS/MS analysis; assay type: ADME, organism-based; design: dose 10 mg/kg, route oral; settings: Sprague-Dawley, plasma
Cytochrome P450 1A2 = target: T2, Cytochrome P450 1A2 (Homo sapiens, UniProt P05177); test: Inhibition of CYP1A2; assay type: ADME
T2 sequence (P05177 whole entry): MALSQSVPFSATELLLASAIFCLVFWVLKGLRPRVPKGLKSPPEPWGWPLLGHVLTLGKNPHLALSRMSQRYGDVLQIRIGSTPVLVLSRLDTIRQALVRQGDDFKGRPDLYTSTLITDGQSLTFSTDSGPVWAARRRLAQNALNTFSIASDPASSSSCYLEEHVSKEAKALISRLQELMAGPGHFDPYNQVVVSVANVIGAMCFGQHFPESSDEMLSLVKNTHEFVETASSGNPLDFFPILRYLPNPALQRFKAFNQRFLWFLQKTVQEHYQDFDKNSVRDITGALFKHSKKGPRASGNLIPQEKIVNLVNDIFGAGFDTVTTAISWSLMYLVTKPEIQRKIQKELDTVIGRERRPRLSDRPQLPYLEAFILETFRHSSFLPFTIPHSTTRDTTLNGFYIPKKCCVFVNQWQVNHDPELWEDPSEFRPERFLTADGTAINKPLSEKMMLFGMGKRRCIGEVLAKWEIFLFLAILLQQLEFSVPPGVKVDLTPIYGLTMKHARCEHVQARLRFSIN

[13] = Aqueous solubility of the compound at pH 2 to 7.4; assay type: physicochemical; settings: buffer

CCN1CCC(Oc2ccc(C(=O)Nc3ccc(NC(=O)Nc4cc(C(C)(C)C)on4)cc3)nc2)CC1 [listing 1 of 2 here]
inhibition (NFS-60): Dose-dependent effect

CN1C(C)(C)CC(Oc2ccc(C(=O)Nc3ccc(NC(=O)Nc4cc(C(C)(C)C)on4)cc3)nc2)CC1(C)C.CS(=O)(=O)O
solubility [1]: > 1000 µg/mL

CCN1CCC(Oc2ccc(C(=O)Nc3ccc(NC(=O)Nc4cc(C(C)(C)C)on4)cc3)nc2)CC1 [listing 2 of 2 here]
AUC [2]: 9.9 µM·h
IC50 (Cytochrome P450 3A4): > 40 µM
inhibition in vivo at 30 mg/kg [3]: 46%
Activity (Rattus norvegicus [4]): Non-toxic
Activity (Rattus norvegicus [5]): Toxic
inhibition in vivo at 100 mg/kg [6]: 73%
IC50 (Cytochrome P450 2C9): > 40 µM
inhibition in vivo at 10 mg/kg [7]: 31%
bioavailability [8]: 20%
clearance [9]: 25.8 mL/min/kg
IC50 [10]: 0.0079 µM
Kd [11]: 0.0006 µM
IC50 (Cytochrome P450 2C19): > 40 µM
IC50 (Cytochrome P450 2D6): > 40 µM
AUC [12]: 4.8 µM·h
IC50 (Cytochrome P450 1A2): > 40 µM

CN1C(C)(C)CC(Oc2ccc(C(=O)Nc3ccc(NC(=O)Nc4cc(C(C)(C)C)on4)cc3)nc2)CC1(C)C
inhibition (NFS-60): Dose-dependent effect

Cc1ccnc(C(=O)Nc2ccc(NC(=O)Nc3cc(C(C)(C)C)on3)cc2)c1
bioavailability [8]: 4%
clearance [9]: 37.9 mL/min/kg
AUC [12]: 0.5 µM·h

CCN1C(C)(C)CC(Oc2ccc(C(=O)Nc3ccc(NC(=O)Nc4cc(C(C)(C)C)on4)cc3)nc2)CC1(C)C.CS(=O)(=O)O
solubility [1]: > 1000 µg/mL

CC(C)N1CCC(Oc2ccc(C(=O)Nc3ccc(NC(=O)Nc4cc(C(C)(C)C)on4)cc3)nc2)CC1
bioavailability [8]: 17.5%
clearance [9]: 16 mL/min/kg
AUC [12]: 3.5 µM·h

CC(C)(C)c1cc(NC(=O)Nc2ccc(NC(=O)c3ccc(OC4CCN(C5CC5)CC4)cn3)cc2)no1
bioavailability [8]: 36%
clearance [9]: 12 mL/min/kg
AUC [12]: 9.5 µM·h

CC(C)(C)c1cc(NC(=O)Nc2ccc(NC(=O)c3cc4ccccc4cn3)cc2)no1
bioavailability [8]: 9%
clearance [9]: 47 mL/min/kg
solubility [13]: < 5 µg/mL
AUC [12]: 0.8 µM·h
